Experimental data published in PubChem BioAssay (NCI).
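Assay format: 96-well plates, 48-hour exposure. The concentration for 50% growth inhibition is given as GI50. TGI is the concentration that stops growth completely.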

Columns and labels:
Test in all cases: growth of human tumour cells (NCI), 48 h
SK-MEL-5 melanoma = tested on: SK-MEL-5 melanoma
MDA-MB-231 breast = tested on: MDA-MB-231 breast
OVCAR-3 ovarian = tested on: OVCAR-3 ovarian
NCI-H460 lung = tested on: NCI-H460 lung
OVCAR-4 ovarian = tested on: OVCAR-4 ovarian
HT29 colon = tested on: HT29 colon
MDA-MB-435 = tested on: MDA-MB-435
NCI-H23 lung = tested on: NCI-H23 lung
NCI-H522 lung = tested on: NCI-H522 lung
CCRF-CEM leukemia = tested on: CCRF-CEM leukemia
HOP-92 NSCLC = tested on: HOP-92 NSCLC
IGROV1 ovarian = tested on: IGROV1 ovarian
OVCAR-5 ovarian = tested on: OVCAR-5 ovarian
SNB-19 CNS = tested on: SNB-19 CNS
RPMI-8226 leukemia = tested on: RPMI-8226 leukemia
T-47D breast = tested on: T-47D breast
HCC-2998 colon = tested on: HCC-2998 colon
SR leukemia = tested on: SR leukemia
HCT-15 colon = tested on: HCT-15 colon
HS 578T breast = tested on: HS 578T breast
BT-549 breast = tested on: BT-549 breast
M14 melanoma = tested on: M14 melanoma
DU-145 prostate = tested on: DU-145 prostate
EKVX NSCLC = tested on: EKVX NSCLC
786-0 renal = tested on: 786-0 renal
MOLT-4 leukemia = tested on: MOLT-4 leukemia
SNB-75 CNS = tested on: SNB-75 CNS
HCT-116 colon = tested on: HCT-116 colon
OVCAR-8 ovarian = tested on: OVCAR-8 ovarian
SF-295 CNS = tested on: SF-295 CNS
LOX IMVI melanoma = tested on: LOX IMVI melanoma
SF-539 CNS = tested on: SF-539 CNS
K-562 leukemia = tested on: K-562 leukemia
MCF7 breast = tested on: MCF7 breast
A498 renal = tested on: A498 renal
UO-31 renal = tested on: UO-31 renal
A549 NSCLC = tested on: A549 NSCLC
PC-3 prostate = tested on: PC-3 prostate
NCI/ADR-RES ovarian = tested on: NCI/ADR-RES ovarian
ACHN renal = tested on: ACHN renal
HL-60(TB) leukemia = tested on: HL-60(TB) leukemia
SK-MEL-2 melanoma = tested on: SK-MEL-2 melanoma
RXF 393 renal = tested on: RXF 393 renal
CAKI-1 renal = tested on: CAKI-1 renal
SK-OV-3 ovarian = tested on: SK-OV-3 ovarian
SF-268 CNS = tested on: SF-268 CNS
UACC-257 melanoma = tested on: UACC-257 melanoma
SW-620 colon = tested on: SW-620 colon
U251 CNS = tested on: U251 CNS
NCI-H226 lung = tested on: NCI-H226 lung
SN12C renal = tested on: SN12C renal
KM12 colon = tested on: KM12 colon
MALME-3M melanoma = tested on: MALME-3M melanoma
UACC-62 melanoma = tested on: UACC-62 melanoma
TK-10 renal = tested on: TK-10 renal
HOP-62 NSCLC = tested on: HOP-62 NSCLC
SK-MEL-28 melanoma = tested on: SK-MEL-28 melanoma
COLO 205 colon = tested on: COLO 205 colon

What does the source list for `COc1ccc(-c2ccc3c(NC(=O)C4CC4)n[nH]c3n2)cc1`?
GI50 (SK-MEL-5 melanoma): > 25 µM; TGI (SK-MEL-5 melanoma): > 25 µM; GI50 (MDA-MB-231 breast): > 25 µM; TGI (MDA-MB-231 breast): > 25 µM; GI50 (OVCAR-3 ovarian): > 25 µM; TGI (OVCAR-3 ovarian): > 25 µM; GI50 (NCI-H460 lung): > 25 µM; TGI (NCI-H460 lung): > 25 µM; GI50 (OVCAR-4 ovarian): > 25 µM; TGI (OVCAR-4 ovarian): > 25 µM; GI50 (HT29 colon): > 25 µM; TGI (HT29 colon): > 25 µM; GI50 (MDA-MB-435): > 25 µM; TGI (MDA-MB-435): > 25 µM; GI50 (NCI-H23 lung): > 25 µM; TGI (NCI-H23 lung): > 25 µM; GI50 (NCI-H522 lung): > 22.9 µM; TGI (NCI-H522 lung): > 25 µM; GI50 (CCRF-CEM leukemia): > 25 µM; TGI (CCRF-CEM leukemia): > 25 µM; GI50 (HOP-92 NSCLC): 8.02 µM; TGI (HOP-92 NSCLC): > 25 µM; GI50 (IGROV1 ovarian): > 25 µM; TGI (IGROV1 ovarian): > 25 µM; GI50 (OVCAR-5 ovarian): > 25 µM; TGI (OVCAR-5 ovarian): > 25 µM; GI50 (SNB-19 CNS): 15.9 µM; TGI (SNB-19 CNS): > 25 µM; GI50 (RPMI-8226 leukemia): > 25 µM; TGI (RPMI-8226 leukemia): > 25 µM; GI50 (T-47D breast): > 25 µM; TGI (T-47D breast): > 25 µM; GI50 (HCC-2998 colon): > 25 µM; TGI (HCC-2998 colon): > 25 µM; GI50 (SR leukemia): > 25 µM; TGI (SR leukemia): > 25 µM; GI50 (HCT-15 colon): > 25 µM; TGI (HCT-15 colon): > 25 µM; GI50 (HS 578T breast): 23.6 µM; TGI (HS 578T breast): > 25 µM; GI50 (BT-549 breast): > 14.3 µM; TGI (BT-549 breast): > 25 µM; GI50 (M14 melanoma): > 25 µM; TGI (M14 melanoma): > 25 µM; GI50 (DU-145 prostate): > 25 µM; TGI (DU-145 prostate): > 25 µM; GI50 (EKVX NSCLC): > 25 µM; TGI (EKVX NSCLC): > 25 µM; GI50 (786-0 renal): > 20.1 µM; TGI (786-0 renal): > 25 µM; GI50 (MOLT-4 leukemia): > 25 µM; TGI (MOLT-4 leukemia): > 25 µM; GI50 (SNB-75 CNS): 5.1 µM; TGI (SNB-75 CNS): > 17.2 µM; GI50 (HCT-116 colon): > 25 µM; TGI (HCT-116 colon): > 25 µM; GI50 (OVCAR-8 ovarian): 11.7 µM; TGI (OVCAR-8 ovarian): > 25 µM; GI50 (SF-295 CNS): > 25 µM; TGI (SF-295 CNS): > 25 µM; GI50 (LOX IMVI melanoma): > 25 µM; TGI (LOX IMVI melanoma): > 25 µM; GI50 (SF-539 CNS): > 25 µM; TGI (SF-539 CNS): > 25 µM; GI50 (K-562 leukemia): > 25 µM; TGI (K-562 leukemia): > 25 µM; GI50 (MCF7 breast): > 25 µM; TGI (MCF7 breast): > 25 µM; GI50 (A498 renal): > 25 µM; TGI (A498 renal): > 25 µM; GI50 (UO-31 renal): > 20 µM; TGI (UO-31 renal): > 25 µM; GI50 (A549 NSCLC): > 25 µM; TGI (A549 NSCLC): > 25 µM; GI50 (PC-3 prostate): > 25 µM; TGI (PC-3 prostate): > 25 µM; GI50 (NCI/ADR-RES ovarian): > 25 µM; TGI (NCI/ADR-RES ovarian): > 25 µM; GI50 (ACHN renal): > 25 µM; TGI (ACHN renal): > 25 µM; GI50 (HL-60(TB) leukemia): > 25 µM; TGI (HL-60(TB) leukemia): > 25 µM; GI50 (SK-MEL-2 melanoma): > 25 µM; TGI (SK-MEL-2 melanoma): > 25 µM; GI50 (RXF 393 renal): 15 µM; TGI (RXF 393 renal): > 25 µM; GI50 (CAKI-1 renal): > 25 µM; TGI (CAKI-1 renal): > 25 µM; GI50 (SK-OV-3 ovarian): 19.6 µM; TGI (SK-OV-3 ovarian): > 25 µM; GI50 (SF-268 CNS): 11.5 µM; TGI (SF-268 CNS): > 25 µM; GI50 (UACC-257 melanoma): > 25 µM; TGI (UACC-257 melanoma): > 25 µM; GI50 (SW-620 colon): > 25 µM; TGI (SW-620 colon): > 25 µM; GI50 (U251 CNS): 18 µM; TGI (U251 CNS): > 25 µM; GI50 (NCI-H226 lung): > 25 µM; TGI (NCI-H226 lung): > 25 µM; GI50 (SN12C renal): > 25 µM; TGI (SN12C renal): > 25 µM; GI50 (KM12 colon): > 25 µM; TGI (KM12 colon): > 25 µM; GI50 (MALME-3M melanoma): > 25 µM; TGI (MALME-3M melanoma): > 25 µM; GI50 (UACC-62 melanoma): > 25 µM; TGI (UACC-62 melanoma): > 25 µM; GI50 (TK-10 renal): > 25 µM; TGI (TK-10 renal): > 25 µM; GI50 (HOP-62 NSCLC): 7.64 µM; TGI (HOP-62 NSCLC): > 22 µM; GI50 (SK-MEL-28 melanoma): > 25 µM; TGI (SK-MEL-28 melanoma): > 25 µM; GI50 (COLO 205 colon): > 25 µM; TGI (COLO 205 colon): > 25 µM
